# Patent US9175003B2, “Substituted azoanthracene derivatives and intermediates for preparation thereof” (TransTech Pharma, LLC, priority 2009, dated 2015)
# pEC50: −log10 of the molar value.
# Molecular target: human GLP-1 receptor (Homo sapiens (Human), UniProt P43220)
# Details: read-out: Mean EC50; cAMP, HTRF detection, 30 min at 37° C., HEK-293 cells expressing cloned human GLP-1 receptor
# Method: Following overnight incubation of cells, media was removed, and compounds (at concentrations ranging from 0.0001 to 100 μM) were added to monolayer cells in Iscove's modified dulbecco's medium (IMDM), 100 μM RO 20-1724 PDE inhibitor, 0.1% BSA, 2% DMSO in a final volume of 100 μL, and incubated for 30 min at 37° C. […] Alternatively, cells were harvested and combined with compounds in suspension using the buffer and protocol described above. cAMP was quantified using a homogenous time-resolved fluorescence detection system (cAMP dynamic, CIS bio International).
# Sequence of human GLP-1 receptor (P43220 24-463): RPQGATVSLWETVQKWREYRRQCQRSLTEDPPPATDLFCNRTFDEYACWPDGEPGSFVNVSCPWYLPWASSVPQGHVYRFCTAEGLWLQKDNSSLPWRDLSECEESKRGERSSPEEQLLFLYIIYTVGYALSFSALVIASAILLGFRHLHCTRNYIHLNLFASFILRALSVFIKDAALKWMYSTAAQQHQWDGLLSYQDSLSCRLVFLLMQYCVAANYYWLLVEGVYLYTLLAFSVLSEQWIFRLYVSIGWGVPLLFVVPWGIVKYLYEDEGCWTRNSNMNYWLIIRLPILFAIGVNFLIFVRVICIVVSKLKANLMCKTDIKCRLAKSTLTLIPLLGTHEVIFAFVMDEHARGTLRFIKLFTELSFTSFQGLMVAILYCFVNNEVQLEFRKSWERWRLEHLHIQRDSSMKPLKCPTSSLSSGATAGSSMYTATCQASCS
row,SMILES,pEC50
1,"Cc1ncoc1C(=O)N1Cc2cc3c(cc2C[C@H]1C(=O)N[C@@H](Cc1ccc(Oc2ccnc(C)c2C)cc1)C(=O)O)OC[C@H](c1ccc(OCc2ccc(Cl)c(Cl)c2)cc1)O3 [Example 263, (S)-2-{[(3S,8S)-3-[4-(3,4-Dichloro-benzyloxy)-phenyl]-7-(4-methyl-oxazole-5-carbonyl)-2,3,6,7,8,9-hexahydro-[1,4]dioxino[2,3-g]isoquinoline-8-carbonyl]-amino}-3-[4-(2,3-dimethyl-pyridin-4-yloxy)-phenyl]-propionic acid]",6.73
2,"Cc1nccc(Oc2ccc(C[C@H](NC(=O)[C@@H]3Cc4cc5c(cc4CN3C(=O)NC3CCC(F)(F)CC3)O[C@@H](c3ccc(OCc4ccc(Cl)c(Cl)c4)cc3)CO5)C(=O)O)cc2)c1C [Example 352, (S)-2-{[(3S,8S)-3-[4-(3,4-Dichloro-benzyloxy)-phenyl]-7-(4,4-difluoro-cyclohexylcarbamoyl)-2,3,6,7,8,9-hexahydro-[1,4]dioxino[2,3-g]isoquinoline-8-carbonyl]-amino}-3-[4-(2,3-dimethyl-pyridin-4-yloxy)-phenyl]-propionic acid]",6.47
3,"CC[C@@H](c1ccccc1)N1Cc2cc3c(cc2C[C@H]1C(=O)N[C@@H](Cc1ccc(Oc2ccnc(C)c2C)cc1)C(=O)O)OC[C@H](c1cccc(OCc2ccc(Cl)c(Cl)c2)c1)O3 [Example 422, (S)-2-{[(3S,8S)-3-[3-(3,4-Dichloro-benzyloxy)-phenyl]-7-((S)-1-phenyl-propyl)-2,3,6,7,8,9-hexahydro-[1,4]dioxino[2,3-g]isoquinoline-8-carbonyl]-amino}-3-[4-(2,3-dimethyl-pyridin-4-yloxy)-phenyl]-propionic acid]",8.10
4,"Cc1nccc(-c2ccc(C[C@H](NC(=O)[C@@H]3Cc4cc5c(cc4CN3C(=O)N[C@H](C)c3ccccc3)O[C@@H](c3ccc(OCc4cc(Cl)ccc4Cl)cc3)CO5)C(=O)O)cc2)c1C [Example 370, (S)-2-{[(3S,8S)-3-[4-(2,5-Dichloro-benzyloxy)-phenyl]-7-((R)-1-phenyl-ethylcarbamoyl)-2,3,6,7,8,9-hexahydro-[1,4]dioxino[2,3-g]isoquinoline-8-carbonyl]-amino}-3-[4-(2,3-dimethyl-pyridin-4-yl)-phenyl]-propionic acid]",7.21
5,"Cc1nccc(-c2ccc(C[C@H](NC(=O)[C@@H]3Cc4cc5c(cc4CN3C(=O)N3CCOCC3)O[C@@H](c3ccc(OCc4ccc(Cl)c(Cl)c4)cc3)CO5)C(=O)O)cc2)c1C [Example 311, (S)-2-{[(3S,8S)-3-[4-(3,4-Dichloro-benzyloxy)-phenyl]-7-(morpholine-4-carbonyl)-2,3,6,7,8,9-hexahydro-[1,4]dioxino[2,3-g]isoquinoline-8-carbonyl]-amino}-3-[4-(2,3-dimethyl-pyridin-4-yl)-phenyl]-propionic acid]",7.13
6,"CCNc1nc(C)c(S(=O)(=O)N2Cc3cc4c(cc3C[C@H]2C(=O)N[C@@H](Cc2ccc(-c3ccc(C#N)cc3)cc2)C(=O)O)OC[C@@H](c2ccc(OCc3ccc(Cl)c(Cl)c3)cc2)O4)s1 [Example 62, (S)-3-(4′-Cyano-biphenyl-4-yl)-2-{[(3R,8S)-3-[4-(3,4-dichloro-benzyloxy)-phenyl]-7-(2-ethylamino-4-methyl-thiazole-5-sulfonyl)-2,3,6,7,8,9-hexahydro-[1,4]dioxino[2,3-g]isoquinoline-8-carbonyl]-amino}-propionic acid]",6.48
7,"Cc1ccccc1C(=O)N1Cc2cc3c(cc2C[C@H]1C(=O)N[C@@H](Cc1ccc(-c2ccnc(C)c2C)cc1)C(=O)O)OC[C@H](c1ccc(OCc2ccc(Cl)c(Cl)c2)cc1)O3 [Example 151, (S)-2-{[(3S,8S)-3-[4-(3,4-Dichloro-benzyloxy)-phenyl]-7-(2-methyl-benzoyl)-2,3,6,7,8,9-hexahydro-[1,4]dioxino[2,3-g]isoquinoline-8-carbonyl]-amino}-3-[4-(2,3-dimethyl-pyridin-4-yl)-phenyl]-propionic acid]",7.74
8,"Cc1nccc(-c2ccc(C[C@H](NC(=O)[C@@H]3Cc4cc5c(cc4CN3Cc3ccccn3)O[C@@H](c3ccc(OCc4ccc(Cl)c(Cl)c4)cc3)CO5)C(=O)O)cc2)c1C [Example 175, (S)-2-({(3S,8S)-3-[4-(3,4-Dichloro-benzyloxy)-phenyl]-7-pyridin-2-ylmethyl-2,3,6,7,8,9-hexahydro-[1,4]dioxino[2,3-g]isoquinoline-8-carbonyl}-amino)-3-[4-(2,3-dimethyl-pyridin-4-yl)-phenyl]-propionic acid]",8.30
9,"Cc1nc(C(=O)N2Cc3cc4c(cc3C[C@H]2C(=O)N[C@@H](Cc2ccc(-c3ccnc(C)c3C)cc2)C(=O)O)OC[C@H](c2ccc(OC3CCC(Cl)CC3)cc2)O4)c(C)o1 (stereo partly drawn) [Example 375, (S)-2-{[(3S,8S)-3-[4-(4-Chloro-cyclohexyloxy)-phenyl]-7-(2,5-dimethyl-oxazole-4-carbonyl)-2,3,6,7,8,9-hexahydro-[1,4]dioxino[2,3-g]isoquinoline-8-carbonyl]-amino}-3-[4-(2,3-dimethyl-pyridin-4-yl)-phenyl]-propionic acid]",7.30
10,"CC[C@@H](c1ccccc1)N1Cc2cc3c(cc2C[C@H]1C(=O)N[C@@H](Cc1ccc(-c2ccnc(C)c2C)cc1)C(=O)O)OC[C@H](c1ccc(OC2CC4CCC2C4)cc1)O3 (stereo partly drawn) [Example 173, (S)-2-{[(3S,8S)-3-[4-(Bicyclo[2.2.1]hept-2-yloxy)-phenyl]-7-((S)-1-phenyl-propyl)-2,3,6,7,8,9-hexahydro-[1,4]dioxino[2,3-g]isoquinoline-8-carbonyl]-amino}-3-[4-(2,3-dimethyl-pyridin-4-yl)-phenyl]-propionic acid]",6.84
11,"Cc1ccccc1NC(=O)N1Cc2cc3c(cc2C[C@H]1C(=O)N[C@@H](Cc1ccc(Oc2ccnc(C)c2C)cc1)C(=O)O)OC[C@H](c1ccc(OCc2ccc(Cl)c(Cl)c2)cc1)O3 [Example 338, (S)-2-({(3S,8S)-3-[4-(3,4-Dichloro-benzyloxy)-phenyl]-7-o-tolylcarbamoyl-2,3,6,7,8,9-hexahydro-[1,4]dioxino[2,3-g]isoquinoline-8-carbonyl}-amino)-3-[4-(2,3-dimethyl-pyridin-4-yloxy)-phenyl]-propionic acid]",6.42
12,"CC[C@@H](c1ccccc1)N1Cc2cc3c(cc2C[C@H]1C(=O)N[C@@H](Cc1ccc(-c2cnn(C)c2)cc1)C(=O)O)OC[C@H](c1ccc(OCc2ccc(Cl)c(Cl)c2)cc1)O3 [Example 197, (S)-2-{[(3S,8S)-3-[4-(3,4-Dichloro-benzyloxy)-phenyl]-7-((S)-1-phenyl-propyl)-2,3,6,7,8,9-hexahydro-[1,4]dioxino[2,3-g]isoquinoline-8-carbonyl]-amino}-3-[4-(1-methyl-1H-pyrazol-4-yl)-phenyl]-propionic acid]",6.58
13,"CC[C@@H](c1ccccc1)N1Cc2cc3c(cc2C[C@H]1C(=O)N[C@@H](Cc1ccc(-c2cc(C)nc(C)c2)cc1)C(=O)O)OC[C@H](c1ccc(OCc2ccc(Cl)c(Cl)c2)cc1)O3 [Example 188, (S)-2-{[(3S,8S)-3-[4-(3,4-Dichloro-benzyloxy)-phenyl]-7-((S)-1-phenyl-propyl)-2,3,6,7,8,9-hexahydro-[1,4]dioxino[2,3-g]isoquinoline-8-carbonyl]-amino}-3-[4-(2,6-dimethyl-pyridin-4-yl)-phenyl]-propionic acid]",7.85
